The subject of one assay is Aβ42. In words: Method 1: Aβ42 sandwich ELISA in supernatant of SKNBE2 cells carrying APP 695-wild type (Tables 7a, 7b). The class given is cell-based. To be noted: Table 7b; averaged IC50; non-linear regression of percentage of control vs log concentration, 4-parameter equation. The protocol:
(§1) Screening was carried out using SKNBE2 cells carrying the APP 695-wild type, grown in Dulbecco's Modified Eagle's Medium/Nutrient mixture F-12 (DMEM/NUT-mix F-12) (HAM) provided by Gibco (cat no. 31330-38) containing 5% Serum/Fe supplemented with 1% non-essential amino acids. Cells were grown to near confluency.
(§2) The screening was performed using the assay as described in Citron et al (1997) Nature Medicine 3: 67. Briefly, cells were plated in a 96-well plate at about 10^5 cells/ml one day prior to addition of compounds. Compounds were added to the cells in Ultraculture (Lonza, BE12-725F) supplemented with 1% glutamine (Invitrogen, 25030-024) for 18 Hours. The media were assayed by two sandwich ELISAs, for Aβ42 and Aβtotal. Toxicity of the compounds was assayed by WST-1 cell proliferation reagent (Roche, 1 644 807) according to the manufacturer's protocol.
To quantify the amount of Aβ42 in the cell supernatant, commercially available Enzyme-Linked-Immunosorbent-Assay (ELISA) kits were used (Innotest® β-Amyloid(1-42), Innogenetics N.V., Ghent, Belgium). The Aβ42 ELISA was performed essentially according to the manufacturer's protocol. Briefly, the standards (dilutions of synthetic Aβ1-42) were prepared in polypropylene Eppendorf with final concentrations of 8000 down to 3.9 pg/ml (½ dilution step). Samples, standards and blanks (100 μl) were added to the anti-Aβ42-coated plate supplied with the kit (the capture antibody selectively recognizes the C-terminal end of the antigen). The plate was allowed to incubate 3 H at 25° C. in order to allow formation of the antibody-amyloid complex. Following this incubation and subsequent wash steps a selective anti-Aβ-antibody conjugate (biotinylated 3D6) was added and incubated for a minimum of 1 Hour in order to allow formation of the antibody-Amyloid-antibody-complex. After incubation and appropriate wash steps, a Streptavidine-Peroxidase-Conjugate was added, followed 30 minutes later by an addition of 3,3′,5,5′-tetramethylbenzidine (TMB)/peroxide mixture, resulting in the conversion of the substrate into a coloured product. This reaction was stopped by the addition of sulfuric acid (0.9 N) and the colour intensity was measured by means of photometry with an ELISA-reader with a 450 nm filter.
(§3) To obtain the values reported in Table 7a, the sigmoidal dose response curves were analysed by computerised curve-fitting, with percent of inhibition plotted against compound concentration. A 4-parameter equation (model 205) in XLfit was used to determine the IC50. The top and the bottom of the curve were fixed to 100 and 0, respectively, and the hill slope was fixed to 1. The IC50 represents the concentration of a compound that is required for inhibiting a biological effect by 50% (Here, it is the concentration where Aβ peptide level is reduced by 50%).
(§4) To obtain the values reported in Table 7b, the data were calculated as percentage of the maximum amount of amyloid Beta 42 measured in the absence of the test compound. The sigmoidal dose response curves were analyzed using non-linear regression analysis with percentage of the control plotted against the log concentration of the compound. A 4-parameter equation was used to determine the IC50. The values reported in Table 7b are averaged IC50 values.
(An ELISA detects its analyte on a solid surface through an enzyme-linked reagent.)

Another assay has as its system Aβtotal. In words: Method 1: Aβtotal sandwich ELISA in supernatant of SKNBE2 cells carrying APP 695-wild type (Tables 7a, 7b). Format: cell-based. To be noted: Table 7b; averaged IC50; non-linear regression of percentage of control vs log concentration, 4-parameter equation. How it is done: as §1, §2
To quantify the amount of Aβtotal in the cell supernatant, samples and standards were added to a 6E10-coated plate. The plate was allowed to incubate overnight at 4° C. in order to allow formation of the antibody-amyloid complex. Following this incubation and subsequent wash steps a selective anti-Aβ-antibody conjugate (biotinylated 4G8) was added and incubated for a minimum of 1 Hour in order to allow formation of the antibody-Amyloid-antibody-complex. After incubation and appropriate wash steps, a Streptavidine-Peroxidase-Conjugate was added, followed 30 minutes later by an addition of Quanta Blu fluorogenic peroxidase substrate according to the manufacturer's instructions (Pierce Corp., Rockford, Ill.).
as §3, §4

A word on the IC50: it is the concentration needed to halve the response being measured. Take `CCn1c(CC2CC2)nc2c(Nc3ccc(-c4cnc(C)o4)c(OC)c3)cccc21` [Compound 64]: the IC50 in the assay with Aβ42 was 0.068 µM; in the assay on Aβtotal it was > 3 µM.
For `Cn1cc(-c2ccc(Nc3cccc4c3nc(-c3ccc(F)cc3)n4C)cc2)cn1` [Compound 67] the same measures were 0.065 µM and > 3 µM.
For `Cn1cc(-c2ccc(Nc3cccc4c3nc(-c3ccc(F)cc3)n4C)cn2)cn1` [Compound 70] the same measures were 0.076 µM and > 3 µM.
In the same order, the values of `Cn1nccc1-c1ccc(Nc2cccc3c2nc(-c2ccc(F)cc2)n3C)nc1` [Compound 71] are 1.95 µM and > 3 µM.
As for `Cn1nccc1-c1ccc(Nc2cccc3c2nc(-c2ccc(F)cc2)n3C)cc1` [Compound 72], the IC50 in the assay on Aβ42 is 0.955 µM; in the assay with Aβtotal, > 3 µM.
For `COc1cc(Nc2cccc3c2nc(-c2ccc(F)cc2)n3C)ccc1-c1ncnn1C` [Compound 75] the same measures were 1.15 µM and > 3 µM.
In the same order, the values of `Cc1ncc(-c2ccc(Nc3cccc4c3nc(-c3ccc(F)cc3)n4C)cn2)s1` [Compound 76] are 0.182 µM and > 3 µM.
`COc1cc(Nc2cccc3c2nc(-c2ccc(F)cc2)n3C(C)C)ccc1-c1cnc(C)s1` [Compound 77]: the values for the IC50 with Aβ42 and in the assay with Aβtotal were 0.043 µM and > 3 µM, respectively.
For `COc1cc(Nc2nccc3c2nc(-c2ccc(F)cc2F)n3C)ccc1-c1cnc(C)s1` [Compound 78] the same measures were 0.275 µM and > 3 µM.
For `Cc1nc(C)c(-c2ccc(Nc3cccc4c3nc(-c3ccc(F)cc3)n4C)cc2)o1` [Compound 83] the same measures were 0.059 µM and > 3 µM.
For `Cc1ncc(-c2ccc(Nc3cc(F)cc4c3nc(N3CCCC3)n4C)cc2)o1` [Compound 90] the same measures were 1.1 µM and > 3 µM.
Regarding `COc1cc(Nc2nccc3c2nc(CCC(F)(F)F)n3C)ccc1-c1cnc(C)o1` [Compound 91], the IC50 is 1.45 µM with Aβ42 and 66.1 µM with Aβtotal.
On to `COc1cc(Nc2nc(C)cc3c2nc(C2CCOCC2)n3C)ccc1-c1cnc(C)o1` [Compound 92], for which the half-maximal inhibitory concentration (IC50) in the assay on Aβ42 was 2.57 µM; in the assay on Aβtotal, > 3 µM.
In the same order, the values of `COc1cc(Nc2nc(C3CC3)cc3c2nc(-c2ccc(F)cc2)n3C)ccc1-c1cnc(C)o1` [Compound 94] are 0.083 µM and > 3 µM.
In the same order, the values of `COc1cccc(-c2nc3c(Nc4ccc(-c5cnc(C)o5)cc4)nc(C)cc3n2C)c1` [Compound 98] are 0.071 µM and > 3 µM.
For `Cc1ncc(-c2ccc(Nc3cc(C(F)(F)F)cc4c3nc(C3CCOCC3)n4C)cc2)o1` [Compound 100] the same measures were 2.24 µM and 25.1 µM.
With `COc1cc(Nc2nc(C)cc3c2nc(-c2cccc(OC(C)C)c2)n3C)ccc1-c1cnc(C)o1` [Compound 102], the half-inhibitory concentration (IC50) with Aβ42 was 0.024 µM; with Aβtotal, > 3 µM.
For `COc1cccc(-c2nc3c(Nc4ccc(-c5cnc(C)o5)nc4)cc(C#N)cc3n2C)c1` [Compound 103] the same measures were 0.036 µM and > 3 µM.
For `COc1cc(Nc2cc(F)cc3c2nc(N(C)CC(C)C)n3C)ccc1-c1cnc(C)o1` [Compound 108] the same measures were 0.132 µM and > 10 µM.
In the same order, the values of `COc1cccc(-c2nc3c(Nc4ccc(-c5cnc(C)o5)c(F)c4)nccc3n2C)c1` [Compound 109] are 0.145 µM and 2.82 µM.
In the case of `Cc1ncoc1-c1ccc(Nc2cc(C#N)cc3c2nc(-c2ccc(F)cc2)n3C)cn1` [Compound 110], the half-inhibitory concentration (IC50) was 0.083 µM with Aβ42 and > 3 µM in the assay on Aβtotal.
With `Cc1ncoc1-c1ccc(Nc2cccc3c2nc(-c2cccc(Cl)c2)n3C(C)C)cn1` [Compound 112], the concentration for half-maximal inhibition (IC50) in the assay with Aβ42 was 0.028 µM; with Aβtotal, > 1 µM.
In the same order, the values of `Cc1ncoc1-c1ccc(Nc2cc(F)cc3c2nc(-c2ccccc2Cl)n3C)cn1` [Compound 114] are 0.072 µM and > 3 µM.

The record behind these values is patent US8946426B2, “Substituted bicyclic heterocyclic compounds as gamma secretase modulators” (Janssen Pharmaceuticals, Inc., priority 2009, dated 2015).
